Laboratory results from ChEMBL document CHEMBL1126797 (J Med Chem, 1993).

Tests used:
DNA topoisomerase 1 [1] = molecular target: T1, DNA topoisomerase 1 (Homo sapiens, UniProt P11387); assay: Inhibition of Topoisomerase I by cleavage complex formation in human HL-60 cells; format: cell-based
T1 sequence (P11387 whole entry): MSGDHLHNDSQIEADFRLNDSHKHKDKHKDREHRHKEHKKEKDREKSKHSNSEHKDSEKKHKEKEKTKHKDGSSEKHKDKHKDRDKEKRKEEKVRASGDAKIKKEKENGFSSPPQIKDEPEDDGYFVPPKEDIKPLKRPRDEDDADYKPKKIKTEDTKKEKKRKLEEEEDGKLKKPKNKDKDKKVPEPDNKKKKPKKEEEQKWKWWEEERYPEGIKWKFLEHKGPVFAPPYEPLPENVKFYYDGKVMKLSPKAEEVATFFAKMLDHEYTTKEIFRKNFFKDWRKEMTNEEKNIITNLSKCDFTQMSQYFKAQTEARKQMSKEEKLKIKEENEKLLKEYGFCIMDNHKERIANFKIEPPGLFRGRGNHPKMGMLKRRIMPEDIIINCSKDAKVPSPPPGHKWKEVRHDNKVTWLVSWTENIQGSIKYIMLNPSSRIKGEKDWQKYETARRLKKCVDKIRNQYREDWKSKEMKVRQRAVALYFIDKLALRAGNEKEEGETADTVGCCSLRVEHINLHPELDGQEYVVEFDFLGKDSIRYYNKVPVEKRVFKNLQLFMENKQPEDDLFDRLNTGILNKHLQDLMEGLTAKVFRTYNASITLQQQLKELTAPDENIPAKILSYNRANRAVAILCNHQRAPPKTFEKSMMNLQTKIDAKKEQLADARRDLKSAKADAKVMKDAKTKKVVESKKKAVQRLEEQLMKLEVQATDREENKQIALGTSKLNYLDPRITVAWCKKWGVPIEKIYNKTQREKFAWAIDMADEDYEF

DNA topoisomerase 1 [2] = molecular target: T1, DNA topoisomerase 1; assay: Inhibition of Topoisomerase I by cleavage complex formation in intact human HL-60 cells; format: cell-based
L1210 [3] = assay: Log of initial tumor cell population minus log of tumor cell population at end of treatment in L1210 lymphoid leukemic mice; format: functional, Mus musculus
Mus musculus [4] = species: Mus musculus; assay: Toxic dose in L1210 lymphoid leukemic mice; format: toxicity, organism-based; conditions: in vivo
Mus musculus [5] = assay: Highest active dose in L1210 lymphoid leukemic mice at dose range of 2.37-8 mg/kg; format: functional
Mus musculus [6] = species: Mus musculus; assay: Number of L1210 lymphoid leukemic mice cured out of […]; format: functional
Mus musculus [7] = species: Mus musculus; assay: Percent median survival time of treated leukemic mice compared to control; format: functional
L1210 [8] = assay: Log of initial tumor cell population minus log of tumor cell population at end of treatment after ip injection on days 1 and 5; format: functional, Mus musculus
L1210 [9] = assay: Log of initial tumor cell population minus log of tumor cell population at end of treatment after iv drug dosing on hours 1 and 5; format: functional, Mus musculus
L1210 [10] = assay: Toxic dose in L1210 murine lymphoid leukemia after ip injection on days 1 and 5 at 10 mg/kg; NT means not toxic; format: toxicity, organism-based; parameters: dose 10 mg/kg, route intraperitoneal; conditions: mouse, in vivo
L1210 [11] = assay: Toxic dose in L1210 murine lymphoid leukemia after iv drug dosing on hours 1 and 5; NT means not toxic at 5 mg/Kg; format: toxicity, organism-based; conditions: mouse, in vivo
Mus musculus [12] = assay: Highest active dose in L1210 lymphoid leukemic mice after ip injection on days 1 and 5 at dose of 10 mg/kg; format: functional; conditions: route intraperitoneal
Mus musculus [13] = assay: Highest active dose in L1210 lymphoid leukemic mice after iv drug dosing on hours 1 and 5 at dose range of 2.5-5 mg/kg; format: functional
Mus musculus [14] = assay: Median survival time of treated/control animals x 100 after ip injection on days 1 and 5; format: functional
Mus musculus [15] = assay: Median survival time of treated/control animals x 100 after iv drug dosing on hours 1 and 5; format: functional
HT-29 [16] = assay: Tumor volume in HT-29 cells after subcutaneous administration on days 16,20,23,27,30,34,37,41,44,48 at dose of 2.5 mg/kg; format: functional, Homo sapiens
[17] = Number of metastases in K1735-M2 murine melanoma cells after subcutaneous administration at dose of 2.5 mg/kg; format: functional, Mus musculus
Mus musculus [18] = assay: Highest active dose in L1210 lymphoid leukemic mice at dose range of 0.6-5 mg/kg; format: functional
Mus musculus [19] = assay: Relative survival in L1210 lymphoid leukemic mice after subcutaneous administration on days 1,4,6,8 at dose of 4 mg/kg; format: functional
Mus musculus [20] = assay: Relative survival in RAW117-H10 cells implanted mice in comparison to control at dose of 2.5 mg/kg; format: functional
HT-29 [21] = assay: Tumor volume in HT-29 cells after subcutaneous administration on days 16,20,23,27,30,34,37,41,44,48 at dose of 4 mg/kg; format: functional, Homo sapiens
[22] = Number of metastases in K1735-M2 murine melanoma after subcutaneous administration on days1,4,6,8 at dose of 4 mg/kg; format: functional, Mus musculus
Mus musculus [23] = assay: Relative survival in RAW117-H10 cells implanted mice in comparison to control at dose of 4 mg/kg; format: functional
Mus musculus [24] = assay: Relative survival as percent of control survival time in L1210 murine lymphoid leukemic mice after sc administration on days1,4,6,8 at dose of 4 mg/kg; format: functional; conditions: route subcutaneous

## CCC1(O)C(=O)OCc2c1cc1n(c2=O)Cc2cc3c([N+](=O)[O-])c4c(cc3nc2-1)OCO4 (racemic)
DNA topoisomerase 1 [1]
  IC50: 0.22 µM

## CCC1(O)C(=O)OCc2c1cc1n(c2=O)Cc2cc3cc(F)ccc3nc2-1 (centres undefined)
DNA topoisomerase 1 [1]
  IC50: 0.37 µM

## CCC1(O)C(=O)OCc2c1cc1n(c2=O)Cc2cc3cc(OC(=O)N4CCN(C)CC4)ccc3nc2-1 (centres undefined)
DNA topoisomerase 1 [1]
  IC50: 4.4 µM

## CCC1(O)C(=O)OCc2c1cc1n(c2=O)Cc2cc3c(Cl)cccc3nc2-1 (racemic)
DNA topoisomerase 1 [1]
  IC50: 0.19 µM

## CC[C@](O)(C(=O)O)c1cc2n(c(=O)c1CO)Cc1cc3c(N)c4c(cc3nc1-2)OCO4
DNA topoisomerase 1 [1]
  IC50: > 30 µM

## CC[C@@]1(O)C(=O)OCc2c1cc1n(c2=O)Cc2cc3cc(Cl)ccc3nc2-1
DNA topoisomerase 1 [1]
  IC50: 0.14 µM

## CCC1(O)C(=O)OCc2c1cc1n(c2=O)Cc2cc3c(F)cccc3nc2-1 (centres undefined)
DNA topoisomerase 1 [1]
  IC50: 0.16 µM

## CCC1(O)C(=O)OCc2c1cc1n(c2=O)Cc2cc3c(NC(=O)CN)c4c(cc3nc2-1)OCO4 (racemic)
DNA topoisomerase 1 [2]
  IC50: > 30 µM
DNA topoisomerase 1 [1]
  IC50: 0.26 µM

## CC[C@@](O)(C(=O)O)c1cc2n(c(=O)c1CO)Cc1cc3ccccc3nc1-2
DNA topoisomerase 1 [1]
  IC50: 12 µM

## CCC1(O)C(=O)OCc2c1cc1n(c2=O)Cc2cc3c(Cl)c(Cl)ccc3nc2-1 (centres undefined)
DNA topoisomerase 1 [1]
  IC50: 0.11 µM

## CC[C@@]1(O)C(=O)OCc2c1cc1n(c2=O)Cc2cc3c(C)cccc3nc2-1
L1210 [3]
  KE: 5.6
Mus musculus [4]
  Toxic dose: 12 mg/kg
Mus musculus [5]
  Highest active dose: 8 mg/kg
Mus musculus [6]
  Cures: 4
Mus musculus [7]
  T/C: 274%
DNA topoisomerase 1 [1]
  IC50: 0.038 µM

## CCC1(O)C(=O)OCc2c1cc1n(c2=O)Cc2cc3c(Cl)c4c(cc3nc2-1)OCO4 (centres undefined)
DNA topoisomerase 1 [1]
  IC50: 0.061 µM

## CCC1(OC(=O)CN)C(=O)OCc2c1cc1n(c2=O)Cc2cc3c(N)cccc3nc2-1.Cl (racemic)
L1210 [8]
  KE: -1
L1210 [9]
  KE: 1.67
L1210 [10]
  Toxic dose: Non-toxic
L1210 [11]
  Toxic dose: Not toxic
DNA topoisomerase 1 [2]
  IC50: 6.8 µM
Mus musculus [12]
  Highest active dose: 10 mg/kg
Mus musculus [13]
  Highest active dose: 5 mg/kg
Mus musculus [14]
  T/C: 132%
Mus musculus [15]
  T/C: 168%
DNA topoisomerase 1 [1]
  IC50: 5.5 µM

## CC[C@@]1(O)C(=O)OCc2c1cc1n(c2=O)Cc2cc3cc([N+](=O)[O-])ccc3nc2-1
DNA topoisomerase 1 [1]
  IC50: 0.64 µM

## CCC1(O)C(=O)OCc2c1cc1n(c2=O)Cc2cc3c(CN4CC4)c(O)ccc3nc2-1 (centres undefined)
DNA topoisomerase 1 [1]
  IC50: 1.1 µM

## CCC1(O)C(=O)OCc2c1cc1n(c2=O)Cc2cc3c4c(ccc3nc2-1)OCO4 (racemic)
DNA topoisomerase 1 [1]
  IC50: 3.8 µM

## O=C1OCc2c(cc3n(c2=O)Cc2cc4ccccc4nc2-3)C1(O)CCBr (racemic)
DNA topoisomerase 1 [1]
  IC50: 3.1 µM

## CC[C@@]1(O)C(=O)OCc2c1cc1n(c2=O)Cc2cc3cc(C#N)ccc3nc2-1
DNA topoisomerase 1 [1]
  IC50: 1.9 µM

## CC[C@@]1(O)C(=O)OCc2c1cc1n(c2=O)Cc2cc3c([N+](=O)[O-])c4c(cc3nc2-1)OCO4
DNA topoisomerase 1 [1]
  IC50: 0.15 µM

## CC[C@@]1(O)C(=O)OCc2c1cc1n(c2=O)Cc2cc3c(N)cccc3nc2-1 [9-AMINOCAMPTOTHECIN]
HT-29 [16]
  Control: 25%
[17]
  Control: 73%
L1210 [3]
  KE: 5.97
Mus musculus [4]
  Toxic dose: 10 mg/kg
Mus musculus [18]
  Highest active dose: 0.6 mg/kg
Mus musculus [6]
  Cures: 3
Mus musculus [7]
  T/C: 361%
Mus musculus [19]
  T/C: 2.44
Mus musculus [20]
  T/C: 1.15
DNA topoisomerase 1 [1]
  IC50: 0.11 µM

## CC[C@@](O)(C(=O)[O-])c1cc2n(c(=O)c1CO)Cc1cc3cc4c(cc3nc1-2)OCO4.[Na+]
HT-29 [21]
  Control: 40%
[22]
  Control: 15%
Mus musculus [23]
  T/C: 1.36
Mus musculus [24]
  T/C: 2.13
DNA topoisomerase 1 [1]
  IC50: 0.84 µM
